Measurements published in US20120100135A1, “GENETIC POLYMORPHISMS ASSOCIATED WITH CLINICAL OUTCOMES OF TOPOISOMERASE INHIBITOR THERAPY FOR CANCER” (University of Southern California, priority 2009, published 2012).

Tested on: mCRC patients
Assay: Phase III EPIC trial subgroup (US sites, 186 genotyped patients): IR/CB (arm A) vs IR alone (arm B), second line after failure of FOLFOX
Assay type: in vivo, human
Description: This study was to test functional germline polymorphisms involved in the EGFR—(EGF, EGFR), angiogenesis—(VEGF, IL-8, CXCR-2)—and drug-metabolism related genes (UGT1A1, MTHFR) for their potential role as molecular predictors for clinical outcome in patients treated with CB/IR vs. IR alone.
Material and Methods: DNA was extracted from all available formalin-fixed paraffin-embedded tumor samples from the phase III EPIC trial (US sites only). Genotyping was performed using PCR-RFLP assays and 5′-end [g-33P] ATP′ labeled PCR-protocols.
Results: 186 patients were treated either with IR/CB (arm A, 84 patients) or IR (arm B, 102 patients) only. […] It was found an EGFR-CA-repeat in intron I in arm A was associated with PFS (p=0.031, log-rank test) (Table 2). In arm A, a significant association with […] (RR) (p=0.0103, Fisher's exact test) for MTHFR 1298 was found (Table 3). […] Furthermore, MTHFR 677 and MTHFR 1298 was associated with OS (adjusted p=0.028 and 0.026, respectively, Cox-proportional hazards models), independent from K-ras mutation status, race and number of disease sites.

CCc1c2c(nc3ccc(OC(=O)N4CCC(N5CCCCC5)CC4)cc13)-c1cc3c(c(=O)n1C2)COC(=O)[C@]3(O)CC [IR, Irinotecan]
Median PFS (95% CI): 2.7 months | median overall survival (OS) (95% CI): 12.3 months | patients showing CR or PR (arm A n=84, arm B n=102): 6% | patients with SD or PD (arm A n=84, arm B n=102): 94%
